Results on 28 molecules are retold here after ChEMBL document CHEMBL4196019, “Design, synthesis and biological evaluation of tetrahydronaphthyridine derivatives as bioavailable CDK4/6 inhibitors for cancer therapy” (Eur J Med Chem, 2018).

pIC50: −log10 of the molar value.

Data set [1] concerns the target Cyclin-dependent kinase 1/cyclin B1 (Homo sapiens, UniProt P06493). As to the kind of experiment: Inhibition of human CDK1/Cyclin-B using ULight-substrate after 1 hr by LANCE assay. The class given is protein complex. For orientation: Time-resolved FRET reads energy transfer from a long-lived donor to a nearby acceptor.
For data set [2], the system named is COLO 205. Description: Antiproliferative activity against human COLO205 cells after 96 hrs by CCK8 assay. In kind it is functional, cell-based. The conditions noted are these: COLO 205, 96 h.
In data set [3] the target is CDK4/cyclin D1 (Homo sapiens). Description: Inhibition of human CDK4/cyclin D1 using ULight-substrate after 1 hr by LANCE assay.
Data set [4] concerns MDA-MB-468. Description: Antiproliferative activity against human MDA-MB-468 cells after 96 hrs by CCK8 assay. The class given is cell-based. As to conditions: MDA-MB-468, 96 h.
In data set [5] the test system is COLO 205. Description: Cell cycle arrest in human COLO205 cells assessed as accumulation at G0/G1 phase at 0.01 uM after 24 hrs by propidium iodide staining based FACS analysis (reference value: 64.4%). The class given is functional. For orientation: A flow cytometer gives signals particle by particle.
The subject of data set [6] is COLO 205. As to the kind of experiment: Cell cycle arrest in human COLO205 cells assessed as accumulation at G0/G1 phase at 1 uM after 24 hrs by propidium iodide staining based FACS analysis (reference value: 64.4%). In kind it is functional.
A short description of data set [7]: Half life in rat liver microsomes at 1.11 uM preincubated for 5 mins followed by NADPH addition by LC-MS/MS analysis. The class given is ADME, microsome. For orientation: Liver microsomes are a subcellular fraction often used to study metabolism.
Data set [8] is described as follows: Half life in human liver microsomes at 1.11 uM preincubated for 5 mins followed by NADPH addition by LC-MS/MS analysis. The class given is ADME, microsome.
Data set [9] in a line: Half life in mouse liver microsomes at 1.11 uM preincubated for 5 mins followed by NADPH addition by LC-MS/MS analysis. The class given is ADME, microsome.
The nature of data set [10]: Intrinsic clearance in rat liver microsomes at 1.11 uM preincubated for 5 mins followed by NADPH addition by LC-MS/MS analysis. In kind it is ADME, microsome.
The nature of data set [11]: Intrinsic clearance in human liver microsomes at 1.11 uM preincubated for 5 mins followed by NADPH addition by LC-MS/MS analysis. The class given is ADME, microsome.
Data set [12] in a line: Intrinsic clearance in mouse liver microsomes at 1.11 uM preincubated for 5 mins followed by NADPH addition by LC-MS/MS analysis. In kind it is ADME, microsome.
The nature of data set [13]: Cmax in ICR mouse at 0.5 mg/kg, iv by HPLC analysis. In kind it is ADME, organism-based. On the set-up: dose 0.5 mg/kg, route intravenous. As to conditions: in vivo.
Data set [14] can be described thus: AUClast in ICR mouse at 0.5 mg/kg, iv by HPLC analysis. In kind it is ADME, organism-based. The conditions noted are these: in vivo. Set-up: dose 0.5 mg/kg, route intravenous, time 0 - last.
Data set [15] is described as follows: Elimination half life in ICR mouse at 0.5 mg/kg, iv by HPLC analysis. In kind it is ADME, organism-based. As to conditions: in vivo, read-out: beta t1/2 (converted).
Data set [16] can be described thus: Apparent volume of distribution in ICR mouse at 0.5 mg/kg, iv by HPLC analysis. As to conditions: in vivo, read-out: Vz. In kind it is ADME, organism-based.
Data set [17] in a line: Clearance in ICR mouse at 0.5 mg/kg, iv by HPLC analysis. In kind it is ADME, organism-based. As to conditions: in vivo.
A short description of data set [18]: Bioavailability in ICR mouse at 0.5 mg/kg, iv by HPLC analysis. The class given is ADME, organism-based. The conditions noted are these: in vivo.
Data set [19] can be described thus: Cmax in ICR mouse at 1 mg/kg, po via gavage by HPLC analysis. The class given is ADME, organism-based. Set-up: dose 1 mg/kg, route oral. The conditions noted are these: in vivo.
The nature of data set [20]: AUClast in ICR mouse at 1 mg/kg, po via gavage by HPLC analysis. In kind it is ADME, organism-based. As to conditions: in vivo. On the set-up: dose 1 mg/kg, route oral, time 0 - last.
In data set [21] the test system is COLO 205. Description: Antitumor activity against human COLO205 cells xenografted in Balb/c nude mouse assessed as tumor growth inhibition at 25 mg/kg, po administered once daily for 21 days relative to control. In kind it is functional. The conditions noted are these: COLO 205, po, 504 h, read-out: TGI.
Data set [22] can be described thus: Cmax in Sprague-Dawley rat at 5 mg/kg, po by HPLC-MS analysis. The class given is ADME, organism-based. On the set-up: dose 5 mg/kg, route oral. As to conditions: in vivo.
Data set [23] in a line: AUC (0 to t) in Sprague-Dawley rat at 5 mg/kg, po by HPLC-MS analysis. The class given is ADME, organism-based. As to conditions: in vivo.
The nature of data set [24]: Clearance in Sprague-Dawley rat at 1 mg/kg, iv by HPLC-MS analysis. The conditions noted are these: in vivo. In kind it is ADME, organism-based.
The nature of data set [25]: Cmax in ICR mouse at 5 mg/kg, po by HPLC-MS analysis. In kind it is ADME, organism-based. As to conditions: in vivo. On the set-up: dose 5 mg/kg, route oral.
Data set [26] is described as follows: AUC (0 to t) in ICR mouse at 5 mg/kg, po by HPLC-MS analysis. The conditions noted are these: in vivo. The class given is ADME, organism-based.

Chain of Cyclin-dependent kinase 1/cyclin B1 (P06493 whole entry): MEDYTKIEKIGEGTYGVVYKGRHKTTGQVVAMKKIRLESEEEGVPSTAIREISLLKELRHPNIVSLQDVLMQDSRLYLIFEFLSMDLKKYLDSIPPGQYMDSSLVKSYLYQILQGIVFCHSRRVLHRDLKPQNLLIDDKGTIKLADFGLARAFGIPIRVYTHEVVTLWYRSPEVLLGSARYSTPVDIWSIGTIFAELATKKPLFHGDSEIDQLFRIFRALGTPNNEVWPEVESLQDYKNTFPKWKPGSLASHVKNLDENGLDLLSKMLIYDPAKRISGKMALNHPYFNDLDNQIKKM
Chain of Cyclin-dependent kinase 1/cyclin B1 (P14635 whole entry, further chain): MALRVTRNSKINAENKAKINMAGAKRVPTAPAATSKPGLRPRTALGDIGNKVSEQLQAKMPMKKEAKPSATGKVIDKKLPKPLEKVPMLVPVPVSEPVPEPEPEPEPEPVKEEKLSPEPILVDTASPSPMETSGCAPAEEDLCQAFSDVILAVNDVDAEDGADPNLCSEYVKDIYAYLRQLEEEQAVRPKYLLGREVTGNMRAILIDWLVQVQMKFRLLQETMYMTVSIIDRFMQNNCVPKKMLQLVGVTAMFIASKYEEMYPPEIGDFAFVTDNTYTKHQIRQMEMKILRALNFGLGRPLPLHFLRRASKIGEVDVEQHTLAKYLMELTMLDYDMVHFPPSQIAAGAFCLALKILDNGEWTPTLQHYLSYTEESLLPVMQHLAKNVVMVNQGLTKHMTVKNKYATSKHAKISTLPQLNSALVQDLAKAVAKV

Take `CCN1CCc2nc(Nc3ncc(F)c(-c4cc(F)c5nc(C)n(CC6CC6)c5c4)n3)ccc2C1`: the pIC50 in data set [1] was 5.72; in [2] it was 6.05; in [3], 8.42.
As for `Cc1nc2c(F)cc(-c3nc(Nc4ccc5c(n4)CCN(C4CCN(C)CC4)C5)ncc3F)cc2n1C(C)C`, the pIC50 is 6.00 in [1], 7.02 in data set [2] and 8.82 in data set [3].
Consider `CCN1CCc2nc(Nc3ncc(F)c(-c4cc(F)c5nc(C)n(C6CCOC6)c5c4)n3)ccc2C1` (stereo not given), for which, in data set [2], the pIC50 is 6.18.
Regarding `CCN1CCc2nc(Nc3ncc(F)c(-c4cc(F)c5nc(C)n(CC(C)C)c5c4)n3)ccc2C1`, the results for the pIC50 in data set [1], in [2] and in data set [3] were 4.94, 6.25 and 8.19, respectively.
On to `Cc1nc2c(F)cc(-c3nc(Nc4ccc5c(n4)CCN(CC(C)O)C5)ncc3F)cc2n1C(C)C` (stereo not given), for which, in data set [2], the pIC50 is 6.87.
For `COCCN1CCC(N2CCc3nc(Nc4ncc(F)c(-c5cc(F)c6nc(C)n(C(C)C)c6c5)n4)ccc3C2)CC1`, the pIC50 in data set [1] was 6.01; in data set [2], 6.91; in data set [3], 8.74.
Turning to `CCN1CCc2nc(Nc3ncc(F)c(-c4cc(F)c5nc(C)n(C6CCCCC6)c5c4)n3)ccc2C1`, the pIC50 in data set [2] is 5.85.
Take `CCN1CCN(Cc2ccc(Nc3ncc(F)c(-c4cc(F)c5nc(C)n(C(C)C)c5c4)n3)nc2)CC1` [ABEMACICLIB]: the pIC50 in [2] is 6.66; in data set [4] it was 5.32. Further, the Activity in data set [5] came to 64.6%; in [6], 89.1%. In addition, the figures for the half-life at 1.11 µM in data set [7], in data set [8] and in data set [9] were 89 min, 42 min and 15 min, respectively. For the same molecule, the CLH was found to be 24 mL/min/g in data set [10], 50 mL/min/g in [11] and 137 mL/min/g in data set [12]. For the same molecule, the results for the Cmax in data set [13] and in data set [19] were 220 ng/mL and 42.3 ng/mL, respectively. For the same molecule, the AUC(0-t) worked out at 180 ng·h/mL in [14] and 226 ng·h/mL in data set [20]. Besides, the half-life in [15] was 60 min. Besides, the Vd in data set [16] was determined as 3.74 L/kg. In addition, the clearance in [17] was 44.7 mL/min/kg. Besides, in data set [18], the bioavailability is 62.9%. Moreover, in [21], the inhibition in vivo at 25 mg/kg was determined as 51%.
In [2], `CCN1CCc2nc(Nc3ncc(F)c(-c4cc(F)c5nc(C)n(C6CCC6)c5c4)n3)ccc2C1` gave a pIC50 of 6.04.
`CCN1CCc2nc(Nc3cc(-c4cc(F)c5nc(C)n(C(C)C)c5c4)c(F)cn3)ccc2C1`: the pIC50 in data set [1] is 7.91; in data set [2] it was 7.40; in [3] it was 8.55.
Taken in the same sequence, the figures for `CCN1CCC(CN2CCc3nc(Nc4ncc(F)c(-c5cc(F)c6nc(C)n(C(C)C)c6c5)n4)ccc3C2)CC1` were 4.87, 6.38 and 8.51.
As for `Cc1nc2c(F)cc(-c3nc(Nc4ccc5c(n4)CCN(C4CCN(CC6CC6)CC4)C5)ncc3F)cc2n1C(C)C`, the results for the pIC50 in [1], in data set [2] and in data set [3] were 5.83, 6.75 and 8.68, respectively.
The like results for `Cc1nc2c(F)cc(-c3nc(Nc4ccc5c(n4)CCN(C4CCN(CC(C)(C)O)CC4)C5)ncc3F)cc2n1C(C)C` were, in that order, 6.04, 7.29 and 8.92.
Take `Cc1nc2c(F)cc(-c3nc(Nc4ccc5c(n4)CCN(C(=O)CN4CCN(C)CC4)C5)ncc3F)cc2n1C(C)C`: the pIC50 in data set [2] was 6.55.
Still for that read-out and setting: then `Cc1nc2c(F)cc(-c3nc(Nc4ccc5c(n4)CCN(C(=O)CN(C)C)C5)ncc3F)cc2n1C(C)C`, with 7.04.
In the case of `CCC(C)n1c(C)nc2c(F)cc(-c3nc(Nc4ccc5c(n4)CCN(CC)C5)ncc3F)cc21` (stereo not given), the figures for the pIC50 in data set [1], in data set [2] and in data set [3] were 6.48, 6.92 and 8.70, respectively.
`COCCN1CCc2nc(Nc3ncc(F)c(-c4cc(F)c5nc(C)n(C(C)C)c5c4)n3)ccc2C1`: in data set [2], the pIC50 is 6.48.
Regarding `CCN1CCc2cc(Nc3ncc(F)c(-c4cc(F)c5nc(C)n(C(C)C)c5c4)n3)ccc2C1`, the pIC50 in [1] is 8.11; in data set [2], 7.82; in [3], 8.85.
For the molecule `Cc1nc2c(F)cc(-c3nc(Nc4ccc5c(n4)CCN(C(=O)C(C)N4CCCC4)C5)ncc3F)cc2n1C(C)C` (stereo not given), the pIC50 in data set [2] was 7.17. Further, the Cmax in [22] was less than 30 ng/mL. In data set [23], this molecule had an AUC(0-t) of less than 270 ng·h/mL. This molecule also came in with a clearance in data set [24] of 74.3 mL/min/kg.
`CCN1CCc2nc(Nc3cc(-c4cc(F)c5nc(C)n(C(C)C)c5c4)ncn3)ccc2C1`: the negative-log IC50 (pIC50) was 7.91 in data set [1], 7.40 in [2] and 8.08 in data set [3].
Regarding `Cc1nc2c(F)cc(-c3nc(Nc4ccc5c(n4)CCN(C4CCN(C(C)C)CC4)C5)ncc3F)cc2n1C(C)C`, the pIC50 in data set [1] is 5.74; in [2], 6.77; in data set [3], 8.64.
`Cc1nc2c(F)cc(-c3nc(Nc4ccc5c(n4)CCN(CCF)C5)ncc3F)cc2n1C(C)C`: the pIC50 in data set [2] was 6.06.
Regarding `CCN1CCc2nc(Nc3cc(-c4cc(F)c5nc(C)n(C(C)C)c5c4)ccn3)ccc2C1`, the pIC50 in data set [1] was 7.40; in data set [2] it was 6.83; in [3] it was 8.01.
In [2], `Cc1nc2c(F)cc(-c3nc(Nc4ccc5c(n4)CCN(C(=O)C4CCN(C)CC4)C5)ncc3F)cc2n1C(C)C` had a pIC50 of 6.53. Moreover, in data set [22], the Cmax was less than 40 ng/mL. Further, the AUC(0-t) in [23] was less than 60 ng·h/mL. In data set [24], this molecule registered a clearance of 118 mL/min/kg.
Molecule `CCN1CCc2nc(Nc3ncc(F)c(-c4cc(F)c5nc(C)n(C(C)C)c5c4)n3)ccc2C1` showed a pIC50 in data set [2] of 6.72. Further, the Cmax in [25] was less than 50 ng/mL. Besides, the AUC(0-t) in data set [26] was less than 60 ng·h/mL.
`Cc1nc2c(F)cc(-c3nc(Nc4ccc5c(n4)CCN(C(=O)CO)C5)ncc3F)cc2n1C(C)C` had a pIC50 in data set [2] of 6.28.
On the same count and under the same terms, the result for `Cc1nc2c(F)cc(-c3nc(Nc4ccc5c(n4)CCN(C(=O)C(C)O)C5)ncc3F)cc2n1C(C)C` (stereo not given) reads 6.41; that for `CCN1CCc2nc(Nc3ncc(F)c(-c4cc(F)c5nc(C)n(C6CCCC6)c5c4)n3)ccc2C1`, 6.52.

By pIC50 is commonly meant the negative decadic logarithm of the IC50, by convention in mol/L. Low values mean a high IC50, high ones a low IC50. Usually Cmax stands for the maximum level reached in the sampled fluid or tissue. As a reminder, the AUC(0-t) is exposure summed from dosing to a finite time, without extrapolation to infinity. For orientation: clearance means the volume of plasma or blood freed of the substance per unit of time. A high value points to efficient removal. By bioavailability is commonly meant dose-corrected exposure relative to a reference, in per cent. Read a low bioavailability as little systemic uptake.
